Data: ChEMBL document CHEMBL4765295, “Synthesis, pharmacological profile and 2D-QSAR studies of curcumin-amino acid conjugates as potential drug candidates” (Eur J Med Chem, 2020)
Where “and” joins values, the source holds several entries; their conditions need not be identical. Equal entries are not always repeated.

Tested on: Rattus norvegicus
Assay: Anti-inflammatory activity in Wistar rat assessed as inhibition of carrageenan-induced paw edema at 10 mg/kg, ip pretreated for 1 hr followed by carrageenan challenge and measured after 4 hr relative to indomethacin
Format: functional
Settings: time 5 hrs

Compound | inhibition in vivo at 10 mg/kg [%]
COc1cc(/C=C/C(=O)/C=C(O)/C=C/c2ccc(OC(=O)[C@@H](CCSC)NC(=O)OC(C)(C)C)c(OC)c2)ccc1OC(=O)[C@@H](CCSC)NC(=O)OC(C)(C)C | 102

Tested on: Mus musculus
Assay: Analgesic activity in albino mouse assessed as protection at 10 mg/kg, ip measured after 120 mins by hot plate test relative to indomethacin
Format: functional
Settings: 2 h

Compound | Activity [%]
COc1cc(/C=C/C(=O)/C=C(O)/C=C/c2ccc(OC(=O)[C@@H](CCSC)NC(=O)OC(C)(C)C)c(OC)c2)ccc1OC(=O)[C@@H](CCSC)NC(=O)OC(C)(C)C | 169

Tested on: Rattus norvegicus
Assay: Antiinflammatory activity in Wistar rat model of carrageenan-induced paw edema assessed as reduction in thickness of paw edema at 10 mg/kg, ip pretreated for 1 hr followed by carrageenan challenge and measured after 24 hrs (reference value: 0.83 +/-0.08 mm)
Format: functional
Settings: time 25 hrs

Compound | Activity [mm]
COc1cc(/C=C/C(=O)/C=C(O)/C=C/c2ccc(OC(=O)[C@@H](CCSC)NC(=O)OC(C)(C)C)c(OC)c2)ccc1OC(=O)[C@@H](CCSC)NC(=O)OC(C)(C)C | 0.49

Tested on: Splenocyte
Assay: Immunomodulatory activity in Swiss albino mouse splenocytes assessed as cell viability at 10 uM by measuring inhibition of stimulation index incubated for 72 hrs in presence of mitogenic stimulus phytohaemagglutinin by MTT assay relative to indomethacin
Format: functional
Settings: read-out: Activity

Compound | viability at 10 µM [%]
COc1cc(/C=C/C(=O)/C=C(O)/C=C/c2ccc(OC(=O)[C@@H](CCSC)NC(=O)OC(C)(C)C)c(OC)c2)ccc1OC(=O)[C@@H](CCSC)NC(=O)OC(C)(C)C | 47.7

Tested on: Mus musculus
Assay: Analgesic activity in albino mouse assessed as forepaw licking/jumping latency time at 10 mg/kg, ip measured after 30 mins by hot plate test (reference value: 5.02 +/- 0.09 sec)
Format: functional
Settings: 0.5 h

Compound | Time [s]
COc1cc(/C=C/C(=O)/C=C(O)/C=C/c2ccc(OC(=O)[C@@H](CCSC)NC(=O)OC(C)(C)C)c(OC)c2)ccc1OC(=O)[C@@H](CCSC)NC(=O)OC(C)(C)C | 5.14

Tested on: Salmonella typhimurium
Assay: Antibacterial activity against Salmonella typhimurium ATCC 19430 incubated for 18 hrs by agar dilution assay
Format: functional, Salmonella enterica subsp. enterica serovar Typhimurium
Settings: Salmonella enterica

MIC | Compound
1 µg/mL and 1.2 µM | COc1cc(/C=C/C(=O)/C=C(O)/C=C/c2ccc(OC(=O)[C@@H](CCSC)NC(=O)OC(C)(C)C)c(OC)c2)ccc1OC(=O)[C@@H](CCSC)NC(=O)OC(C)(C)C

Tested on: Rattus norvegicus
Assay: Antiinflammatory activity in Wistar rat model of carrageenan-induced paw edema assessed as reduction in thickness of paw edema at 10 mg/kg, ip pretreated for 1 hr followed by carrageenan challenge and measured after 2 hrs (reference value: 2.06 +/-0.09 mm)
Format: functional
Settings: time 3 hrs

Compound | Activity [mm]
COc1cc(/C=C/C(=O)/C=C(O)/C=C/c2ccc(OC(=O)[C@@H](CCSC)NC(=O)OC(C)(C)C)c(OC)c2)ccc1OC(=O)[C@@H](CCSC)NC(=O)OC(C)(C)C | 0.63

Tested on: Streptococcus pyogenes
Assay: Antibacterial activity against Streptococcus pyogenes ATCC 19615 incubated for 18 hrs by agar dilution method
Format: functional
Settings: not given

MIC | Compound
0.125 µg/mL and 0.15 µM | COc1cc(/C=C/C(=O)/C=C(O)/C=C/c2ccc(OC(=O)[C@@H](CCSC)NC(=O)OC(C)(C)C)c(OC)c2)ccc1OC(=O)[C@@H](CCSC)NC(=O)OC(C)(C)C

Tested on: Rattus norvegicus
Assay: Anti-inflammatory activity in Wistar rat assessed as inhibition of carrageenan-induced paw edema at 10 mg/kg, ip pretreated for 1 hr followed by carrageenan challenge and measured after 3 hr relative to control (reference value: 0.00 +/-0.1 %)
Format: functional
Settings: time 4 hrs

Compound | inhibition in vivo at 10 mg/kg [%]
COc1cc(/C=C/C(=O)/C=C(O)/C=C/c2ccc(OC(=O)[C@@H](CCSC)NC(=O)OC(C)(C)C)c(OC)c2)ccc1OC(=O)[C@@H](CCSC)NC(=O)OC(C)(C)C | 74

Tested on: Splenocyte
Assay: Immunomodulatory activity in Swiss albino mouse splenocytes assessed as cell viability at 10 uM by measuring stimulation index incubated for 72 hrs in presence of mitogenic stimulus phytohaemagglutinin by MTT assay (reference value: 1.00 +/- 0.24)
Format: functional
Settings: not given

Compound | Activity_index
COc1cc(/C=C/C(=O)/C=C(O)/C=C/c2ccc(OC(=O)[C@@H](CCSC)NC(=O)OC(C)(C)C)c(OC)c2)ccc1OC(=O)[C@@H](CCSC)NC(=O)OC(C)(C)C | 2.53

Tested on: Rattus norvegicus
Assay: Anti-inflammatory activity in Wistar rat assessed as inhibition of carrageenan-induced paw edema at 10 mg/kg, ip pretreated for 1 hr followed by carrageenan challenge and measured after 24 hr relative to control (reference value: 0.00 +/-0.3 %)
Format: functional
Settings: time 25 hrs

Compound | inhibition in vivo at 10 mg/kg [%]
COc1cc(/C=C/C(=O)/C=C(O)/C=C/c2ccc(OC(=O)[C@@H](CCSC)NC(=O)OC(C)(C)C)c(OC)c2)ccc1OC(=O)[C@@H](CCSC)NC(=O)OC(C)(C)C | 41

Tested on: Mus musculus
Assay: Analgesic activity in albino mouse assessed as protection at 10 mg/kg, ip measured after 30 mins by hot plate test (reference value: 0 %)
Format: functional
Settings: 0.5 h

Compound | Activity [%]
COc1cc(/C=C/C(=O)/C=C(O)/C=C/c2ccc(OC(=O)[C@@H](CCSC)NC(=O)OC(C)(C)C)c(OC)c2)ccc1OC(=O)[C@@H](CCSC)NC(=O)OC(C)(C)C | 2.4

Tested on: Staphylococcus aureus
Assay: Antibacterial activity against Staphylococcus aureus ATCC 25923 incubated for 18 hrs by agar dilution method
Format: functional
Settings: not given

MIC | Compound
0.25 µg/mL and 0.301 µM | COc1cc(/C=C/C(=O)/C=C(O)/C=C/c2ccc(OC(=O)[C@@H](CCSC)NC(=O)OC(C)(C)C)c(OC)c2)ccc1OC(=O)[C@@H](CCSC)NC(=O)OC(C)(C)C

Tested on: Rattus norvegicus
Assay: Anti-inflammatory activity in Wistar rat assessed as inhibition of carrageenan-induced paw edema at 10 mg/kg, ip pretreated for 1 hr followed by carrageenan challenge and measured after 1 hr relative to control (reference value: 0.00 +/-0.02 %)
Format: functional
Settings: time 2 hrs

Compound | inhibition in vivo at 10 mg/kg [%]
COc1cc(/C=C/C(=O)/C=C(O)/C=C/c2ccc(OC(=O)[C@@H](CCSC)NC(=O)OC(C)(C)C)c(OC)c2)ccc1OC(=O)[C@@H](CCSC)NC(=O)OC(C)(C)C | 58

Tested on: Rattus norvegicus
Assay: Antiinflammatory activity in Wistar rat model of carrageenan-induced paw edema assessed as reduction in thickness of paw edema at 10 mg/kg, ip pretreated for 1 hr followed by carrageenan challenge and measured after 4 hrs (reference value: 1.40 +/-0.10 mm)
Format: functional
Settings: time 5 hrs

Compound | Activity [mm]
COc1cc(/C=C/C(=O)/C=C(O)/C=C/c2ccc(OC(=O)[C@@H](CCSC)NC(=O)OC(C)(C)C)c(OC)c2)ccc1OC(=O)[C@@H](CCSC)NC(=O)OC(C)(C)C | 0.15

Tested on: Mus musculus
Assay: Analgesic activity in albino mouse assessed as forepaw licking/jumping latency time at 10 mg/kg, ip measured after 90 mins by hot plate test (reference value: 2.72 +/- 0.01 sec)
Format: functional
Settings: 1.5 h

Compound | Time [s]
COc1cc(/C=C/C(=O)/C=C(O)/C=C/c2ccc(OC(=O)[C@@H](CCSC)NC(=O)OC(C)(C)C)c(OC)c2)ccc1OC(=O)[C@@H](CCSC)NC(=O)OC(C)(C)C | 4.82

Tested on: not listed separately
Assay: Ulcerogenic activity in fasted albino mouse assessed as ulcer index in gastric mucosa at 10 mg/kg, po for 3 days (reference value: 0)
Format: toxicity, organism-based
Settings: in vivo, 72 h, time 3 day

Compound | UI
COc1cc(/C=C/C(=O)/C=C(O)/C=C/c2ccc(OC(=O)[C@@H](CCSC)NC(=O)OC(C)(C)C)c(OC)c2)ccc1OC(=O)[C@@H](CCSC)NC(=O)OC(C)(C)C | 0

Tested on: Mus musculus
Assay: Analgesic activity in albino mouse assessed as protection at 10 mg/kg, ip measured after 90 mins by hot plate test (reference value: 0 %)
Format: functional
Settings: 1.5 h

Compound | Activity [%]
COc1cc(/C=C/C(=O)/C=C(O)/C=C/c2ccc(OC(=O)[C@@H](CCSC)NC(=O)OC(C)(C)C)c(OC)c2)ccc1OC(=O)[C@@H](CCSC)NC(=O)OC(C)(C)C | 77.2
